The text below walks through data of patent publication US12109266B2, “Modulating gabarap to modulate immunogenic cell death” (Dana-Farber Cancer Institute, Inc., priority 2020, dated 2024).

For one assay, the system named is CALR. Kind of assay: Mass spectrometry after CALR immunoprecipitation. Type of assay: cell-based, human. The conditions noted are these: AMO1 WT vs GABARAP^KO, with or without BTZ. The text has this:
To test this hypothesis, the CALR network was explored at the protein level by performing mass spectrometry (MS) after CALR immunoprecipitation (IP) in WT or GABARAP^KO AMO1 cells in the presence or absence of BTZ. […] CALR trap in the mitochondria has been recently reported in tumors with high stanniocalcin 1 (STC1), a newly recognized phagocytosis checkpoint driving tumor immune resistance (Lin et al. (2021) Cancer Cell. April 12; 39(4):480-493.e6. doi: 10.1016/j.ccell.2020.12.023. Epub 2021 Jan. 28. PMID: 33513345; PMCID: PMC8044011). […] A WB analysis of FLAG-immunoprecipitated proteins in […] cells expressing FLAG-tagged GABARAP was performed to analyze GABARAP interacting partners. […] These findings identify a molecular mechanism whereby GABARAP prevents STC1 binding to CALR; conversely, in low-GABARAP cells STC1 binding to CALR induces trapping of CALR in the mitochondria (FIG. 34).

The test system of assay [1] is AMO1 and NCI-H929 MM cells. Kind of assay: Micronuclei assay (flow cytometry). Type of assay: cell-based, human. Particulars: AMO1 (0-7.5 nM) and NCI-H929 (0-5 nM), 16 h. On the procedure:
Cells were analyzed for micronuclei formation using a flow cytometry-based Micronucleus Assay (MicroFlow kit), according to manufacturer's protocol. Briefly, nonviable cells were removed by Ficoll gradient centrifugation. Viable cells were then stained with photoactivated Nucleic Acid Dye A (ethidium monoazide) that crosses the compromised outer membrane of apoptotic and necrotic cells and stains them red. Cells were then washed twice and lysed with a detergent containing buffer to break open cytoplasmic membranes and release nuclei and micronuclei. Nucleic Acid Dye B (SYTOX green) is then added to label DNA from both nuclei and micronuclei. Flow cytometry analysis was used to distinguish DNA from dead (dual stained with Dye A and B) and live (single stained with Dye B) cells.

Assay [2] has as its system UPR transducer PERK pathway. The assay is described as follows: Western blot of UPR/PERK pathway. The class given is cell-based. Particulars: AMO1 and 5TGM1 cells. Here is the method:
Cell lysis was performed in RIPA buffer (Boston Bio Products) supplemented with Halt™ protease and phosphatase inhibitor cocktail (Thermo Fisher Scientific). Immunoblot analysis was performed to evaluate expression levels of total protein and phospho-specific isoforms. SDS-PAGE was performed on NuPage™ Bis-Tris gels (ThermoFisher Scientific) using MOPS or MES running buffer. Gels were dry transferred onto 0.45 μm nitrocellulose membranes using the iBlot® Dry Blotting System (ThermoFisher Scientific). The following antibodies (Abs) were used and purchased from Cell Signaling Technology: CRT (Cat. #12238) and GABARAP (Cat. #13733). GAPDH (Cat. #2118) was used as loading controls.
Cell lysis was performed in RIPA buffer (Boston Bio Products) supplemented with Halt protease and phosphatase inhibitor cocktail (ThermoFisher Scientific). SDS-PAGE was performed on NuPage Bis-Tris gels (ThermoFisher Scientific) using MOPS or MES running buffer. Gels were dry transferred onto 0.45 μm nitrocellulose membranes using the iBlot® Dry Blotting System (ThermoFisher Scientific). The following Abs were purchased from Cell Signaling Technology: EIF2A (#5324), p-EIF2A (#3398), ATF4 (#11815), CHOP (2895), CALR (#12238), cGAS (#15102), TBK1 (#3504), pTBK1 (#5483), pIRF3 (#29047), STING (#13647). GAPDH (#2118) and B-ACTIN (#4970) were used as loading controls.

The test system of the next assay is U266 cells. The assay is described as follows: Cytotoxicity assay (T cell lysis of MM cells). The class given is cell-based, human. Particulars: T cells from BTZ co-culture, 24 h. Here is the method: After coculture of HLA-matched DCs and T cells from healthy donors with either untreated or BTZ-treated U266 cells for 5 days, T cells were negatively selected using the Pan T cell Isolation Kit (Miltenyi Biotec) and plated in round bottom 96-well plates with naïve U266 cells pre-stained with CFSE dye (ThermoFisher Scientific) at different target:effector (T:E) ratios for 24 h in the presence of IL-2 (#130-097-74, Miltenyi Biotec). Then cells were 7AAD-stained, and detection of viable CFSE-gated cells was performed using BD LRSFortessa X-20 cytometer.

The test system of the next assay is STC1. Kind of assay: Western blot of STC1. Type of assay: cell-based. For orientation: In western blotting, separated proteins are transferred to a membrane and probed.
The next assay concerns human DCs. The assay is described as follows: DCs maturation assay. The class given is cell-based. On the procedure: Immature DCs were generated as described above (“Generation of Mo-DCs” section). DCs were cultured alone or with untreated or BTZ pretreated-AMO1 (5 nM) for 24 h. DCs alone were cultured i) without maturation stimuli; ii) with 50 ng/ml of TNFalpha (Millipore Sigma); or iii) with 5 nM of BTZ. After 24 h, cells were harvested and analyzed by flow cytometry using the following Abs: anti-CD83-APC (#551073), CD86-FITC (#555657) and 7-AAD from BD Biosciences and CD11c-BV650 (#563404, Biolegend). Dead cells were excluded by 7-AAD positivity, and CD83 and CD86 expression was evaluated on CD11c+ cells.

The subject of assay [3] is IFN response in 5TGM1 cells. The assay is described as follows: Type-I IFN response in MM cells (qRT-PCR). The class given is cell-based, murine. Particulars: 5TGM1 Sting^KO; BTZ 7.5 nM. Here is the method:
Total RNA from multiple myeloma cells was prepared with TRIzol™ (ThermoFisher Scientific) and RNA Clean and Concentrator™-5 kit (Zymo Research) following the product instructions. RNA integrity and quantity was assessed by NanoDrop Spectrophotometer (ThermoFisher Scientific). For analysis of mRNA expression, oligo-dT-primed cDNA was obtained using the High Capacity cDNA Reverse Transcription Kit (ThermoFisher Scientific), and used as template to quantify: human and murine IFNA1 (Hs03044218_g1, Mm03030145_gH), human and murine IFNB1 (Hs01077958_s1, Mm00439552_s1), human and murine CXCL9 (Hs00171065_ml, Mm00434946_ml), and human and murine GAPDH (Hs02786624_g1, Mm99999915_g1). Analysis was determined by RT-PCR using TaqMan®Fast Universal PCR Master Mix on a 7500 Fast Real-Time PCR System (ThermoFisher Scientific). Comparative RT-PCR was performed in triplicate. Relative expression was calculated using the comparative […] (Ct) method.
(In general: Real-time PCR tracks product formation cycle by cycle.)

“Also recorded” adds a separate entry of the source.

For `CC(C)C[C@H](NC(=O)[C@H](Cc1ccccc1)NC(=O)c1cnccn1)B(O)O` [BTZ, bortezomib], the “binding of CALR to mitochondrial proteins” value with CALR was “increases the binding of CALR to mitochondrial proteins in AMO1 GABARAP^KO cells and not WT cells; also recorded: increase of the binding of CALR to mitochondrial proteins only in AMO1 GABARAP^KO cells; also recorded: CALR localizes to the mitochondria after treatment with BTZ in GABARAP KO cells”. Besides, the “micronuclei (DNA content in the cytoplasm)” value in assay [1] was “dose-dependent increase of DNA content in the cytoplasm”. Further, in assay [2], the “PERK pathway activation (p-eIF2-alpha, CHOP, ATF4)” value is listed as “activated the UPR transducer PERK pathway”. In addition, in the assay with U266 cells, the “lysis of MM cells by T cells isolated after co-culture” value is reported as “able to efficiently induce lysis of multiple myeloma cells”. Further, the STC1 protein levels result in the assay with STC1 (GABARAP^KO cells after BTZ) is “intracellular levels of STC1 are even higher after BTZ treatment”; in the assay on STC1 (WT cells (5TGM1, AMO1) after BTZ), “STC1 protein levels decrease in WT cells after BTZ treatment”. In addition, the “expression of CD83 and CD86 maturation markers on DCs” value in the assay with human DCs (24 h co-culture with BTZ (5 nM) pretreated AMO1) was “higher expression of CD86/CD83 on cell surface; also recorded: increased expression of CD83 and CD86 maturation markers”; in the assay on human DCs (DCs with BTZ alone (5 nM), no MM cells), “not triggered by either untreated multiple myeloma cells or BTZ alone”. For the same molecule, the “IFN response (Ifna1, Ifnb1 qRT-PCR)” value in assay [3] was “abrogation of IFN response after BTZ treatment”.
